Laboratory results from ChEMBL document CHEMBL5465560, “Selectivity Literature for EUbOPEN Chemogenomic Library” (2024).
Values belong to the compound of their own block, whether it stands above or below them.

Assays:
[1] = target: T1, Mitogen-activated protein kinase kinase kinase kinase 2 (Homo sapiens) (UniProt Q12851); test: Selectivity interaction (Ambit KINOMEscan and KiNATiv profiling in Jurkat cells) EUB0000090b MAP4K2; assay type: cell-based; details: at 1 µM
T1 sequence (whole entry): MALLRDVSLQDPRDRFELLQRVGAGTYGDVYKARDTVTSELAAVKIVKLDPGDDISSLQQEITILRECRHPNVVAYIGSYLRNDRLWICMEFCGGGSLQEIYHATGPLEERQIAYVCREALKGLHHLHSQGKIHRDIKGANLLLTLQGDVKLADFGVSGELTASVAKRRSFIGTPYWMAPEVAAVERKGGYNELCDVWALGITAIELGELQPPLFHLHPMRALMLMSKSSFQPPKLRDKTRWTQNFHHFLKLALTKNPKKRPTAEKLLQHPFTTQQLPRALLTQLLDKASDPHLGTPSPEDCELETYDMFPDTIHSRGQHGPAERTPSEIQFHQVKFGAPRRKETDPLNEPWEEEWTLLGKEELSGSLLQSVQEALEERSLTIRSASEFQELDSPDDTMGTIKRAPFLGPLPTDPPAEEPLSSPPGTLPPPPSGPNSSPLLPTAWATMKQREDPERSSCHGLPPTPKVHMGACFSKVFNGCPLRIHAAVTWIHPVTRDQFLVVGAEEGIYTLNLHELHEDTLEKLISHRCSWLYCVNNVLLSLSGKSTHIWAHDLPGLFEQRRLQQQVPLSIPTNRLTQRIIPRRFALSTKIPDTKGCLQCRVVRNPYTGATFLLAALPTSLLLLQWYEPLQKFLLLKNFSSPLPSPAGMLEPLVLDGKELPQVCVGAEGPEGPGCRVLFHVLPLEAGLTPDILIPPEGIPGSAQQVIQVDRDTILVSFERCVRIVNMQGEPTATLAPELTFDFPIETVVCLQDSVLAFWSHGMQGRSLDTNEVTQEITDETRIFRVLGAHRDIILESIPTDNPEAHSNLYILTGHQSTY

[2] = target: T2, Serine/threonine-protein kinase Nek2 (Homo sapiens) (UniProt P51955); test: Selectivity interaction (KinomeScan (DiscoverX)) EUB0000655a NEK2; details: at 10 µM
T2 sequence (whole entry): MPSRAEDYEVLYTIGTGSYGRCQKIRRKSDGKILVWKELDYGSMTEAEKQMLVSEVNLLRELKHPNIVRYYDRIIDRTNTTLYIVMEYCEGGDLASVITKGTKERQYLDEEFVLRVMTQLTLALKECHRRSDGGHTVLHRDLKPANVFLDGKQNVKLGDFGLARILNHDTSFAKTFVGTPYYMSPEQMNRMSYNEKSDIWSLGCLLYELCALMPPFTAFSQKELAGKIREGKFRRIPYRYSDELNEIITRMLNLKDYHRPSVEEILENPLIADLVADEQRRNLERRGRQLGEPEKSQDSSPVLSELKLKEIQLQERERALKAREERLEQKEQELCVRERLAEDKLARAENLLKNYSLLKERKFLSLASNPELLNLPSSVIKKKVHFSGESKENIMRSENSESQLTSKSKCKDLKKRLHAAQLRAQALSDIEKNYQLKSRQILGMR

[3] = target: Tyrosine-protein kinase Srms (Homo sapiens) (UniProt Q9H3Y6); test: Selectivity interaction (KinomeScan (DiscoverX)) EUB0000655a SRMS; details: at 10 µM
Tyrosine-protein kinase Srms (Homo sapiens), sequence (Q9H3Y6 whole entry): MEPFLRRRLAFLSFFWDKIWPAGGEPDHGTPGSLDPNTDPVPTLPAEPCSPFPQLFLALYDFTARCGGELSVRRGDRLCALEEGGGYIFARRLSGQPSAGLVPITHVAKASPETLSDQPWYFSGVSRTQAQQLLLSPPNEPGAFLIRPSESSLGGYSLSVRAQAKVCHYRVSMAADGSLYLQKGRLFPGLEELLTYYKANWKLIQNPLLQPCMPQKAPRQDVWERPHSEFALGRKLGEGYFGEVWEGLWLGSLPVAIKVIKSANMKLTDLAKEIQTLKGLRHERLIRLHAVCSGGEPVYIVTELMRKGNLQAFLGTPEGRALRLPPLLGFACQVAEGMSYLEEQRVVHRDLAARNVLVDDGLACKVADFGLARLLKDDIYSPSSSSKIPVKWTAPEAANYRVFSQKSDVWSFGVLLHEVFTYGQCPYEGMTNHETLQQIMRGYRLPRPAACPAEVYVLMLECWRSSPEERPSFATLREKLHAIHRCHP

[4] = target: G protein-coupled receptor kinase 6 (Homo sapiens) (UniProt P43250); test: Selectivity interaction (Upstate Kinase Profiler service (Millipore)) EUB0000056c GRK6; details: at 1 µM
G protein-coupled receptor kinase 6 (Homo sapiens), sequence (P43250 whole entry, looked up): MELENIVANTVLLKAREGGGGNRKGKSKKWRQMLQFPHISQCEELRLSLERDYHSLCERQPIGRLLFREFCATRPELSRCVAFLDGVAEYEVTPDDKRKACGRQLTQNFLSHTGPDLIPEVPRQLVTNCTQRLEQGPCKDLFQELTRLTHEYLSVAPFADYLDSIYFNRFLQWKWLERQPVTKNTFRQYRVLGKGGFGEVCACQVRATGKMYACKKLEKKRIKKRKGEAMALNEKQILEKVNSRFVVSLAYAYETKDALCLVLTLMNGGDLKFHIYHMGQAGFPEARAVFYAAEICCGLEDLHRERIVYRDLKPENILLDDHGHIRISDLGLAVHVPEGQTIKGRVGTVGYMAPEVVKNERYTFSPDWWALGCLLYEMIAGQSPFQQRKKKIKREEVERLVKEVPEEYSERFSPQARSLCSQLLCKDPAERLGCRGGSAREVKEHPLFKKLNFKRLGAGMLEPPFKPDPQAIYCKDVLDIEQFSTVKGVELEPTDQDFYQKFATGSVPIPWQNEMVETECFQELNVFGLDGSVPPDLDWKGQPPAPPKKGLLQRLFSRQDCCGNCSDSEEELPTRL

[5] = target: Mitogen-activated protein kinase kinase kinase 10 (Homo sapiens) (UniProt Q02779); test: Selectivity interaction (Kinase panel (KiNativ target engagement assay in Jurkat cells)) EUB0001635a MAP3K10; assay type: cell-based; details: Selectivity number of off-targets 0.0, Selectivity number of targets 233.0, Source Knowledge https://www.sciencedirect.com/science/article/pii/S2451945619300674?via%3Dihub, at 1 µM
Mitogen-activated protein kinase kinase kinase 10 (Homo sapiens), sequence (Q02779 whole entry, looked up): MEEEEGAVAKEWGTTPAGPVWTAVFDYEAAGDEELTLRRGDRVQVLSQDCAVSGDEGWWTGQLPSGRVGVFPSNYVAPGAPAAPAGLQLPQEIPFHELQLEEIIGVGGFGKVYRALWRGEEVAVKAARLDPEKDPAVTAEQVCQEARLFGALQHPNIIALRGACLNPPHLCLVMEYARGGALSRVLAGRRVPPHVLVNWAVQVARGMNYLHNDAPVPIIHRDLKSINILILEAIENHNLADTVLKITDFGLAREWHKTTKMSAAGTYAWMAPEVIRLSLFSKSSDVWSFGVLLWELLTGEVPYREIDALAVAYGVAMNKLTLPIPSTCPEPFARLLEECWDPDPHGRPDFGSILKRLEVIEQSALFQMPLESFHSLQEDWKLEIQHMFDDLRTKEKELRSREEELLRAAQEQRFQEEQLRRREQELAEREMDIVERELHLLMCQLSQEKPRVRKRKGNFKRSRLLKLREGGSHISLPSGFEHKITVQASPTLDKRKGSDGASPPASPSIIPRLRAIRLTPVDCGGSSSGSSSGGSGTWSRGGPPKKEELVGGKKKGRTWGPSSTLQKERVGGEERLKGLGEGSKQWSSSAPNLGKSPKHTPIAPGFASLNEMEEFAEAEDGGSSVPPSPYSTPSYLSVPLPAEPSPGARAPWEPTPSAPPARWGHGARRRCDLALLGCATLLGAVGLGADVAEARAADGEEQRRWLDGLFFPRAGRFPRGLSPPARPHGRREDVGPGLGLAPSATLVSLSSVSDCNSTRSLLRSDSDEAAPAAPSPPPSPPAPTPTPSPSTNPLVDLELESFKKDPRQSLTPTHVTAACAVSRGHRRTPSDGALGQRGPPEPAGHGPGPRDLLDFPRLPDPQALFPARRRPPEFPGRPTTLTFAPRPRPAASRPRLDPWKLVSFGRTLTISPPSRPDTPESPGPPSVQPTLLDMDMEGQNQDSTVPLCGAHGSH

[6] = target: T3, Inhibitor of nuclear factor kappa-B kinase subunit beta (Homo sapiens) (UniProt O14920); test: Selectivity interaction (ActivX KiNativ screen (kinase selectivity in THP-1 cell lysates)) EUB0000639a IKBKB; assay type: subcellular; details: lysate, at 1 µM
T3 sequence (whole entry): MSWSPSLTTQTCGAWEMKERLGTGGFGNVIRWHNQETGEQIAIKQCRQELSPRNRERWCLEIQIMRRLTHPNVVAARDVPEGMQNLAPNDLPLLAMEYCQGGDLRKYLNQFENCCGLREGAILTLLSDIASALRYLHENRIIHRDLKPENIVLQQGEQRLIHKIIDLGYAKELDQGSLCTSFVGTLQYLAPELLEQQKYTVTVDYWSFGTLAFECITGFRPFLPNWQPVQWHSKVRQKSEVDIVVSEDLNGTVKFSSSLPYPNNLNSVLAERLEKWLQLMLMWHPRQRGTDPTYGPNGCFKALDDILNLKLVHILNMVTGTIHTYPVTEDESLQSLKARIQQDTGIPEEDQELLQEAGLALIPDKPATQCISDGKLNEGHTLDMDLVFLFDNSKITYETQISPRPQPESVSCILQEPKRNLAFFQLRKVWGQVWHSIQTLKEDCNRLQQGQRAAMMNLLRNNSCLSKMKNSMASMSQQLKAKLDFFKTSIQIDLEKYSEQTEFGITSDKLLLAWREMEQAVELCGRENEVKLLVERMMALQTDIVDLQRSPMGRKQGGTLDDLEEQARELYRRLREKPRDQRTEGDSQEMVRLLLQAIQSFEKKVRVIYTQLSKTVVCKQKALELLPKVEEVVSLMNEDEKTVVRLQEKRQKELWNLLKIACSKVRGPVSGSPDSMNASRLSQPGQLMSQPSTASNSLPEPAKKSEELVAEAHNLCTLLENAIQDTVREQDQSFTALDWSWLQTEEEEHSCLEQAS

[7] = target: High affinity nerve growth factor receptor (Homo sapiens, UniProt P04629); test: Selectivity interaction (KinomeScan (DiscoverX)) EUB0000229b NTRK1; details: at 10 µM
High affinity nerve growth factor receptor, sequence (P04629 33-796 limits assumed): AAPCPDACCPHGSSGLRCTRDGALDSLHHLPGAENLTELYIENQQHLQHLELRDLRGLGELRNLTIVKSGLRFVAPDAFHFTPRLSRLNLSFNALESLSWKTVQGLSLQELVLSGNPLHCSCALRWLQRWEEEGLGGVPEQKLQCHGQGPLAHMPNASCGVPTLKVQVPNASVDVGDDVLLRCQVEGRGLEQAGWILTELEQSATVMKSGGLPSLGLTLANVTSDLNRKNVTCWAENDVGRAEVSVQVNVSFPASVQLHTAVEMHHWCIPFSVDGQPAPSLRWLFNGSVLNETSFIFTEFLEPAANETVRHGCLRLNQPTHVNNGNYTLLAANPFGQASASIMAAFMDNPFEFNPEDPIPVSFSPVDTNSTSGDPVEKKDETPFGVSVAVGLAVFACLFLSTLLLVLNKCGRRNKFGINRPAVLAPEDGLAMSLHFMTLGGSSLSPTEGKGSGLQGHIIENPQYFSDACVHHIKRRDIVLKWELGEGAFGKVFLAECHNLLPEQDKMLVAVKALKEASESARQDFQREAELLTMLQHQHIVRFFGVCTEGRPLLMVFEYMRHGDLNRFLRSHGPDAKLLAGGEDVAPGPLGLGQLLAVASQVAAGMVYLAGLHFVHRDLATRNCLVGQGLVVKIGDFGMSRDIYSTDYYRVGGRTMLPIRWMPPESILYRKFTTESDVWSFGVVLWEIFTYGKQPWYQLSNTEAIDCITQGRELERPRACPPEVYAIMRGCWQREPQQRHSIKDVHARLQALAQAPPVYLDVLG

[8] = target: Cyclin-dependent kinase 18 (Homo sapiens) (UniProt Q07002); test: Selectivity interaction (KinomeScan (DiscoverX)) EUB0001049a CDK18; details: at 1 µM
Cyclin-dependent kinase 18 (Homo sapiens), sequence (Q07002 whole entry): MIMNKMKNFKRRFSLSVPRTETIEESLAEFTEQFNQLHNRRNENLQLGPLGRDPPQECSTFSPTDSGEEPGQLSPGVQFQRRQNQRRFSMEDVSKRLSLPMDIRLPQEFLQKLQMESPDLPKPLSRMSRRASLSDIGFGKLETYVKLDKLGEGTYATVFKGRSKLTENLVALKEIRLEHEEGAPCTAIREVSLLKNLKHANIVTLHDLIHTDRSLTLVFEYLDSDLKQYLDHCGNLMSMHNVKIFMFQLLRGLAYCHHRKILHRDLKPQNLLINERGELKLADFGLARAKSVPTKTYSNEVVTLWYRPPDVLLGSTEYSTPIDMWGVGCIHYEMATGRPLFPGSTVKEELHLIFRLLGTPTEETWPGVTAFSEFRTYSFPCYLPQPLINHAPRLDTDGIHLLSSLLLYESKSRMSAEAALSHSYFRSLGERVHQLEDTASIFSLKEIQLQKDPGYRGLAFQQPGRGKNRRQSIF

[9] = target: Serine/threonine-protein kinase OSR1 (Homo sapiens) (UniProt O95747); test: Selectivity interaction (KinomeScan (DiscoverX)) EUB0000092b OXSR1; details: at 10 µM
Serine/threonine-protein kinase OSR1 (Homo sapiens), sequence (O95747 2-527 limits assumed): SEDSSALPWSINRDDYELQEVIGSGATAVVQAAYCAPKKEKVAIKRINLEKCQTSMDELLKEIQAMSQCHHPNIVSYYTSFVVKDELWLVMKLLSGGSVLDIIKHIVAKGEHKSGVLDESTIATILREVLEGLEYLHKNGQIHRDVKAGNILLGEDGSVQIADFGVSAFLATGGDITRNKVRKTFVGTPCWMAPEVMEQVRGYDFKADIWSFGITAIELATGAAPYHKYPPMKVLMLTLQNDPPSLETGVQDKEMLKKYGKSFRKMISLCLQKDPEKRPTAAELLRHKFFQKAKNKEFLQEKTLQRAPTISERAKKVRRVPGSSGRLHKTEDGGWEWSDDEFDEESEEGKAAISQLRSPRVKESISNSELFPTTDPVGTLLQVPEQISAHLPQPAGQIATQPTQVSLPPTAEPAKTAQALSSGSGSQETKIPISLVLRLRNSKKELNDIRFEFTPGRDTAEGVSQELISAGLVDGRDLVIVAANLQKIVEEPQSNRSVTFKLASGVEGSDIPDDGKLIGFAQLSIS

Structure (SMILES): CN(C)C/C=C/C(=O)Nc1ccc(C(=O)N2CCCC(Nc3ncc(Cl)c(-c4c[nH]c5ccccc45)n3)C2)cc1 (centres undefined)
% of control [1]: 100%

Structure (SMILES): CN(C)CCOc1ccc(-c2nc(-c3ccncc3)c(-c3ccc4c(c3)CC/C4=N\O)[nH]2)cc1
% of control [2]: 100%
% of control [3]: 74%

% of inhibition [4]: 10%
Structure (SMILES): Cc1ccc(-c2ccc3c(ccc4sc5c(c43)NC[C@@H](C)NC5=O)n2)cn1

Structure (SMILES): C=CC(=O)Nc1ccc(C(=O)Nc2[nH]nc3c2CN(C(=O)N[C@H](CN(C)C)c2ccccc2)C3(C)C)cc1
% of engagement [5]: -31.2%

% of inhibition [6]: -6.6%
Structure (SMILES): CC[C@@H]1[C@H](F)C(=O)N[C@@H]1COc1nccc2cc(C(N)=O)c(OC)cc12 [ZIMLOVISERTIB]

Structure (SMILES): COc1cc(N(C)c2ccnc3ccc(C(F)(F)F)cc23)cc(OC)c1OC
% binding [7]: 96%

Structure (SMILES): COc1cc(Nc2nc(C)cc(-c3cnn4nc(OC)ccc34)n2)cc(C(F)(F)F)c1
% of control [8]: 87%

Structure (SMILES): CCC(=O)N1CCN(c2ccc(-n3c(=O)ccc4cnc5ccc(-c6cnc7ccccc7c6)cc5c43)cc2C(F)(F)F)CC1
% of control [9]: 100%
